# Article PMC9894685, “Abscisic acid agonists suitable for optimizing plant water use” (Frontiers in Plant Science, 2023)
# Entries after “also recorded” stand apart in the source; their conditions may differ.
# Experiments:
# [1] = test system: wheat plants; assay: Foliar administration and thermal imaging of leaf temperature, wheat; assay type: in vivo, Triticum aestivum; conditions: 100 μM, 24 h after administration
# Experimental: (§1) Thermal imaging was carried out as described ([Yang et al., 2016]). An assessment of the efficacy of ABA and CCPs was conducted by using 35-day-old Arabidopsis and 30-day-old wheat plants. Stock solutions (10 mM) of CCPs and ABA dissolved in dimethyl sulfoxide (DMSO) were diluted to the respective ligand concentrations (10, 30, 100 µM) in water containing 0.01% (v/v) Tween 20. Aqueous Tween 20 solutions supplemented with 0.1%, 0.3%, and 1% DMSO served for mock treatments. The solutions were sprayed onto the leaf surface until the run-off of droplets. One day after application (unless otherwise indicated), thermal imaging was conducted using the InfraTec instrument (IR-TCM 384, InfraTec, Dresden, Germany). The leaf temperature of Arabidopsis was determined as the average temperature of all leaves. The leaf temperature of wheat was determined as described ([Yang et al., 2019]).
# [2] = test system: T1, RCAR11-ABI2; assay: In vitro phosphatase assay, ABI2 with RCAR11; assay type: biochemical, Arabidopsis thaliana; conditions: esterase-treated
# T1 construct: 6xHis (N); made in house; host or cells: Escherichia coli BL21
# Experimental: Expression, purification, and analysis of RCAR and PP2C proteins were performed essentially as described ([Ruschhaupt et al., 2019]). Briefly, the ABA receptors RCAR1, RACR8, and RCAR11 were expressed with an aminoterminal histidine tag using the pSEVA431_LII_6xHIS::RCAR1/RCAR8/RCAR11. ABA coreceptors were expressed as histidine-tagged fusions with the maltose-binding protein using the pSEVA431_LII_6xHIS::MBP::ABI2/HAB1. All constructs were transformed and expressed in Escherichia coli strain BL21 and purified to homogeneity according to supplier’s instruction (GE Healthcare, Chicago, USA). The receptor assay was performed with 100 nM PP2C and a two-fold molar excess of RCAR. Values are means ± SD of three replicates. […] The maximum inhibition was set to 100% in the figures. The phosphatase activity was measured using 4-methylumbelliferyl-phosphate as a substrate ([Meinhard and Grill, 2001]). The increase in fluorescence was recorded over 25 min with excitation and emission wavelengths at 360 and 460 nm, respectively, using a Synergy 2 plate reader (Bio-Tec, Winooski, USA).
# [3] = test system: Arabidopsis plants; assay: Foliar administration and thermal imaging of leaf temperature (transpiration), Arabidopsis; assay type: in vivo, Arabidopsis thaliana; conditions: for Leaf temperature increase, activity compared to ABA: 10, 30, 100 µM, one day after application
# Experimental: as §1
# [4] = test system: Arabidopsis aba2-1 protoplasts; assay: Transient ABA response in Arabidopsis protoplasts (pRD29B::LUC, RCAR11 and ABI2 effectors); assay type: cell-based, Arabidopsis thaliana
# Experimental: Preparation of Arabidopsis protoplasts, transfection of the effector DNA, and analysis of LUC activity were performed as described ([Tischer et al., 2017]). In essence, 10^5 mesophyll protoplasts from leaves of the ABA deficient mutant aba2-1 ([Schwartz et al., 1997]) were transfected with 4 µg DNA of the pRD29B::LUC construct as an ABA-responsive reporter and 3 µg of p35S::GUS (β-glucuronidase reporter gene) expression cassette as an internal control for normalization. In addition, 3 µg p35S::RCAR11 or the empty vector with the same expression cassette were co-expressed with 0.1 µg p35S::ABI2 effector constructs ([Tischer et al., 2017]), and the ligand-dependent induction of ABA-responsive reporter expression were assessed after incubation at 22°C. The expression of LUC and GUS was determined 18 h after transfection and ligand administration.
# [5] = LC-MS log p; assay type: physicochemical
# Experimental: Cyano cyclopropyl ABA analogs were provided by Bayer (Division Crop Science, Höchst, Germany). All CCPs, except CCP8, were synthesized as described ([Frackenpohl et al., 2018]). For the synthesis of CCP8, ethyl-(2Z)-6-(1-cyanocyclopropyl)-3-ethyl-6-hydroxy-7-methyloct-2-en-4-ynoate, copper (I) iodide (7 mg, […]) and bis (triphenylphosphine) palladium (II) chloride (19 mg, 0.03 mmol) were charged under argon, and toluene (3 mL) together with ethyl (2Z)-3-iodopent-2-enoate (233 mg, 0.9 mmol; column chromatography purification of a crude product as described by [Frackenpohl et al., 2018]) were added at room temperature. After stirring for 10 min, 1-(3-hydroxy-4-methylpent-1-yn-3-yl) cyclopropanecarbonitrile (150 mg, 0.9 mmol; synthesis as describe by [Frackenpohl et al., 2018]) dissolved in toluene (3 mL) and diisopropylamine (0.4 mL, 2.8 mmol) were added. The resulting reaction mixture was stirred for 3 h prior to addition of water. The aqueous phase was extracted repeatedly with dichloromethane. The combined organic phases were dried over magnesium sulphate, filtered, and concentrated under reduced pressure. […]
# [6] = target: ABI2 (Arabidopsis thaliana) (UniProt O04719)
# Sequence of ABI2 (Arabidopsis thaliana) (O04719 whole entry): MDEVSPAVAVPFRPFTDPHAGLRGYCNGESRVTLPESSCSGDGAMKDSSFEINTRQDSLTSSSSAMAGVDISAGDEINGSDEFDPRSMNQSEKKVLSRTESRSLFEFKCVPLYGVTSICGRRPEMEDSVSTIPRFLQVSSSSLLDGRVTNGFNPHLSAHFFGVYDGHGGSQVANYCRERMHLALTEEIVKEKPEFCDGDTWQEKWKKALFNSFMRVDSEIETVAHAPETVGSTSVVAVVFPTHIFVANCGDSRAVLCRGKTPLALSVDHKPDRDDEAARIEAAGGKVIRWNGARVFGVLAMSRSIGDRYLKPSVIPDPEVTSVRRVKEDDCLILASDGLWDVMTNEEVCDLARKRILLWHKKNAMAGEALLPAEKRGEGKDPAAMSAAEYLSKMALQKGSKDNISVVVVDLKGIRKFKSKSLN
compound,measurement,setting,value
COC(=O)/C=C(\C=C\C(O)(C(C)C)C1(C#N)CC1)C(F)(F)F (stereo not shown) [CCP4],"Leaf temperature increase, activity compared to ABA",[1],somewhat less active
same,Activity with RCAR11-ABI2 receptor complex compared to ABA,[2],slightly lower activity than ABA
same,"Leaf temperature increase, activity compared to ABA",[3],moderately higher activity compared to ABA
COC(=O)/C=C(\C=C\C(O)(C1CC1)C1(C#N)CC1)C(F)(F)F (stereo not shown) [CCP5],"Leaf temperature increase, activity compared to ABA",[1],somewhat less active
same,Induction of ABA signaling compared to ABA,"[4]; aba2-1 protoplasts, 18 h ligand exposure",most active compound
same,Higher induction rates than ABA,[4]; at different ligand concentrations,up to 60%
same,Activity with RCAR11-ABI2 receptor complex compared to ABA,[2],slightly lower activity than ABA
same,Concentration for half-maximum inhibition of ABI2 relative to ABA,[2]; approximately 60% conversion into free acid,twofold
same,Potency in reducing transpiration compared to ABA,[3]; 10 µM,more potent than 100 µM ABA
same,"Leaf temperature increase, activity compared to ABA",[3],more efficacious than ABA and even exceeding the efficacy of CCP1 to CCP3
same,Duration of persistent response,[3]; 10 and 30 µM ligand treatment,10 days
same,Potency relative to ABA,[3]; 10 and 30 µM ligand vs 100 µM ABA,more than tenfold; also recorded: more than ten times
same,Duration of effect relative to ABA,[3]; 10 and 30 µM ligand vs ABA,approximately three times
same,Efficiency in minimizing transpiration compared to ABA,[3]; foliar application,by an order of magnitude more efficient than ABA
same,Activity and persistence of minimized transpiration compared to ABA,"[3]; single application 100 µM, recorded for 19 days",more active and persistent than ABA
COC(=O)/C=C(\C=C\C(O)(C1CCCC1)C1(C#N)CC1)C(F)(F)F (stereo not shown) [CCP6],Activity with RCAR11-ABI2 receptor complex compared to ABA,[2],slightly lower activity than ABA
same,"Leaf temperature increase, activity compared to ABA",[3],somewhat lower efficacy
"CCOC(=O)/C=C(\C#CC(O)(C(C)C)C1(C#N)CC1)CC (stereo not shown) [CCP8, ethyl-(2Z)-6-(1-cyanocyclopropyl)-3-ethyl-6-hydroxy-7-methyloct-2-en-4-ynoate]",chromatographic logP,[5],1.39
RCAR11/PYR1 (from UniProt O49686 1-191) (receptor),"induction of the ABRE-LUC reporter in yeast expressing RCAR11, ABI2, OST1 and ABF2, with 30 µM ABA or CCP1 against mock-treated cells (dose series with ABA, CCP1, CCP2 in Figure 2A)",[6],8 fold
